{"source": "paper PMC9587032", "about": "“Mapping periplasmic binding protein oligosaccharide recognition with neutron crystallography” (Scientific Reports, 2022)", "molecular_target": "T1, tmMBP (tmMBP2 isoform; maltodextrin-binding protein) (Thermotoga maritima, UniProt Q9S5Y1)", "T1 construct": "gene TM_1839; H/D-exchanged crystal, single chain in asymmetric unit", "T1 sequence (Q9S5Y1 20-393)": "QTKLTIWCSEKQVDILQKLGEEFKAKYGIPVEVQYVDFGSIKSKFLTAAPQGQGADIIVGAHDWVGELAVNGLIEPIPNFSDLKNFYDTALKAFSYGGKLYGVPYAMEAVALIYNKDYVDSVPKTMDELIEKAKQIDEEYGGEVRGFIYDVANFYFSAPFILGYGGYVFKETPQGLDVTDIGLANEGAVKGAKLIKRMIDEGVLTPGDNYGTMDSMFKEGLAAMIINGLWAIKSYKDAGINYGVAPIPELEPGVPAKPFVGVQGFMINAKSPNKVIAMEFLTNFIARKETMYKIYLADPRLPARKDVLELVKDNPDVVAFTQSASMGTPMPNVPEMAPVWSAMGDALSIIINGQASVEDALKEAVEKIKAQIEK", "assay": "joint neutron/X-ray crystal structure", "settings": "pH 5.5 crystals, room temperature, D2O exchanged; interdomain binding site; neutron 2.10 A, X-ray 1.70 A"}
{"smiles": "OC[C@H]1O[C@H](O[C@H]2[C@H](O)[C@@H](O)[C@@H](O[C@H]3[C@H](O)[C@@H](O)[C@@H](O[C@H]4[C@H](O)[C@@H](O)C(O)O[C@@H]4CO)O[C@@H]3CO)O[C@@H]2CO)[C@H](O)[C@@H](O)[C@@H]1O", "note": "(stereo partly shown) [maltotetraose]", "values": [{"measurement": "joint neutron/X-ray crystal structure", "value": "final refined atomic model for maltotetraose bound tmMBP have been deposited"}]}
